US10414811B2, “Protease-resistant lipidated GLP-1 analogs” (MEDIMMUNE LIMITED, priority 2015, dated 2019)
pEC50: −log10 of the molar value. Like-named read-outs stand apart in the source and are kept apart here. Numbered stars: 1 amine (or outer) side, 2 acyl side, 3 side chain; on linkers, the order of the positions; unused ones are H or OH. Square brackets hold non-standard residues; d marks the D form. Side chains are listed from the residue outwards. Peptide text beside a SMILES is read from it. * marks the point of attachment. C18 diacid = O=C(O)CCCCCCCCCCCCCCCCC(=O)*; γGlu = O=C(O)[C@H](CCC(=O)[*:2])N[*:1]; αMeF = C[C@](N)(Cc1ccccc1)C(=O)O; αMeK = C[C@](N)(CCCCN)C(=O)O; Lauroyl = CCCCCCCCCCCC(=O)*; αMeS = C[C@](N)(CO)C(=O)O; AEEA = NCCOCCOCC(=O)O; Aib = CC(C)(N)C(=O)O

How the values were obtained:
Format in all cases: cell-based
[1] = target: T1, human glucagon receptor (GCGR) (Homo sapiens, UniProt P47871); test: cAMP assay, human GCGR cells
T1 construct: expressed in transfected cells
T1 sequence (P47871 26-477): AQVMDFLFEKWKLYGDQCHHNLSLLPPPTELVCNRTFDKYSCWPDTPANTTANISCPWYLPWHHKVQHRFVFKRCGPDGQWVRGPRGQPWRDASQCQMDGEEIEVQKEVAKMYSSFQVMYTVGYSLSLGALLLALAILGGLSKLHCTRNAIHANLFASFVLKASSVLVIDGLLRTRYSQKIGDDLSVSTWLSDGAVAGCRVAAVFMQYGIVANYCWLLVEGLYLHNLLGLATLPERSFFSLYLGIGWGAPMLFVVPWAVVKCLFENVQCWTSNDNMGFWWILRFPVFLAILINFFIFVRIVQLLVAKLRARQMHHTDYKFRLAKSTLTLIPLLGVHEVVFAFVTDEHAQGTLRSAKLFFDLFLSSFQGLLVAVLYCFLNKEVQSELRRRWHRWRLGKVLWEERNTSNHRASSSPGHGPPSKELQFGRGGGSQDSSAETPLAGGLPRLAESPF
In short: (§1)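 Peptide-stimulated cAMP measured by two-step HTRF after a 30 min room-temperature incubation with receptor-expressing cells (hGLP-1R, hGIPR at 1×10^5 cells/ml; hGCGR at 2×10^5 cells/ml). Duplicate dilutions; EC50 from 4-parameter logistic fit of % Delta F.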

[2] = target: T2, human glucose-dependent insulinotropic peptide receptor (GIPR) (Homo sapiens, UniProt P48546); test: cAMP assay, human GIPR cells
T2 construct: expressed in transfected cells
T2 sequence (P48546 22-466): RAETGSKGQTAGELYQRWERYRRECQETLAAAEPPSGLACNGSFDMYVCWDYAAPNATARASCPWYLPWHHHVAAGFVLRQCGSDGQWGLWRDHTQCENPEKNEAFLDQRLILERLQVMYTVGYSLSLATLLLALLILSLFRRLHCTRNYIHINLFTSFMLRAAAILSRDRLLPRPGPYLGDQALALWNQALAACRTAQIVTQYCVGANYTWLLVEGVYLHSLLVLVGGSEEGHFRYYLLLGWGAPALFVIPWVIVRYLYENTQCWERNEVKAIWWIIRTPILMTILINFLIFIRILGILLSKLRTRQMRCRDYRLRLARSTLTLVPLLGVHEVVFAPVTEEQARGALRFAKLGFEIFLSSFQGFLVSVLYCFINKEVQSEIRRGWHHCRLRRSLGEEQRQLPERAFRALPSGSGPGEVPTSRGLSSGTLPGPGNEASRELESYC
In short: as §1

[3] = target: T3, human GLP-1 receptor (GLP-1R) (Homo sapiens, UniProt P43220); test: cAMP assay, human GLP-1R cells; details: for EC50: mean of n1 and n2
T3 construct: expressed in transfected cells
T3 sequence (P43220 24-463): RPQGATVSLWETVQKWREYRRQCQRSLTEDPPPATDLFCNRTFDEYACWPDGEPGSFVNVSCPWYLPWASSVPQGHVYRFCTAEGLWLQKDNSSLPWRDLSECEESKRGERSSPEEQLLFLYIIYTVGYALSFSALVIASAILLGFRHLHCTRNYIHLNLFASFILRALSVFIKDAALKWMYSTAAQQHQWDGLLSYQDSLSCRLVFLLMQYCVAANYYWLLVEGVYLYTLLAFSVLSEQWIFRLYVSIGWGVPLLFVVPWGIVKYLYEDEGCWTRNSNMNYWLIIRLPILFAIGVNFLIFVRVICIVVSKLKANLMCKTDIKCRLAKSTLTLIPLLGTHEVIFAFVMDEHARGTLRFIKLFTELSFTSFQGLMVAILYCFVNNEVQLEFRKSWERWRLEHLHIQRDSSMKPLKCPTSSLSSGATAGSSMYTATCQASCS
In short: as §1

[4] = cAMP assay, first determination (n1), read-out: Primary assay EC50 Gluc-R (n1)
[5] = cAMP assay, second determination (n2), read-out: Primary assay EC50 Gluc-R (n2)
[6] = cAMP assay, first determination (n1), read-out: Primary assay EC50 GIP-R (n1)
[7] = cAMP assay, second determination (n2), read-out: Primary assay EC50 GIP-R (n2)
[8] = cAMP assay, first determination (n1), read-out: Primary assay EC50 GLP-1R n1
[9] = cAMP assay, second determination (n2), read-out: Primary assay EC50 GLP-1R n2

Row | Structure (SMILES) | pEC50 [1, 4] | pEC50 [1, 5] | pEC50 [2, 6] | pEC50 [2, 7] | pEC50 [3, 8] | pEC50 [3, 9] | EC50 ([3]; read-out: Mean pM GLP-1R) [pM] | pEC50 ([1]; tris-lipidated peptides, second replicate, read-out: Primary assay EC50 Gluc-R (n2)) | pEC50 ([2]; tris-lipidated peptides, first replicate, read-out: Primary assay EC50 GIP-R (n1)) | EC50 ([3]; tris-lipidated peptides, read-out: Primary assay EC50 Mean pM GLP-1R) [pM] | pEC50 ([3]; tris-lipidated peptides, replicate n1, read-out: Primary assay EC50 GLP-1R n1) | pEC50 ([3]; tris-lipidated peptides, replicate n2, read-out: Primary assay EC50 GLP-1R n2)
1 | CC[C@H](C)[C@H](NC(=O)[C@](C)(Cc1ccccc1)NC(=O)[C@H](CCC(=O)O)NC(=O)[C@](C)(CCCCN)NC(=O)[C@H](C)NC(=O)[C@H](C)NC(=O)[C@H](CCC(=O)O)NC(=O)CNC(=O)[C@H](CCC(=O)O)NC(=O)[C@H](CC(C)C)NC(=O)[C@](C)(Cc1ccccc1)NC(=O)[C@H](CO)NC(=O)[C@](C)(CO)NC(=O)[C@@H](NC(=O)[C@H](CCCCNC(=O)COCCOCCNC(=O)COCCOCCNC(=O)CC[C@H](NC(=O)CCCCCCCCCCCCCCCCC(=O)O)C(=O)O)NC(=O)[C@H](CO)NC(=O)[C@@H](NC(=O)[C@](C)(Cc1ccccc1)NC(=O)[C@H](CO)NC(=O)CNC(=O)[C@H](CCC(=O)O)NC(=O)C(C)(C)NC(=O)[C@@H](N)Cc1c[nH]cn1)[C@@H](C)O)C(C)C)C(=O)N[C@@H](C)C(=O)N[C@@](C)(Cc1ccccc1)C(=O)N[C@H](C(=O)N[C@H](C(=O)N[C@@](C)(CCCCN)C(=O)NCC(=O)NCC(N)=O)C(C)C)C(C)C [compound 120] (H-H[Aib]EGS[αMeF]TSK([AEEA-AEEA-γGlu-C18 diacid])V[αMeS]S[αMeF]LEGEAA[αMeK]E[αMeF]IA[αMeF]VV[αMeK]GG-NH2) | ≤ 7.60 | ≤ 7.60 | ≤ 7.60 | ≤ 7.60 | 8.39 | 8.50 | 3640 | – | – | – | – | –
2 | CC[C@H](C)[C@H](NC(=O)[C@](C)(Cc1ccccc1)NC(=O)[C@H](CCC(=O)O)NC(=O)[C@](C)(CCCCN)NC(=O)[C@H](C)NC(=O)[C@H](C)NC(=O)[C@H](CCC(=O)O)NC(=O)CNC(=O)[C@H](CCC(=O)O)NC(=O)[C@H](CC(C)C)NC(=O)[C@](C)(Cc1ccccc1)NC(=O)[C@H](CO)NC(=O)[C@H](CO)NC(=O)[C@@H](NC(=O)[C@H](CCC(=O)O)NC(=O)[C@H](CO)NC(=O)[C@@H](NC(=O)[C@](C)(Cc1ccccc1)NC(=O)[C@H](CO)NC(=O)CNC(=O)[C@H](CCC(=O)O)NC(=O)C(C)(C)NC(=O)[C@@H](N)Cc1c[nH]cn1)[C@@H](C)O)C(C)C)C(=O)N[C@@H](C)C(=O)N[C@@](C)(Cc1ccccc1)C(=O)N[C@H](C(=O)N[C@H](C(=O)N[C@@](C)(CCCCN)C(=O)NCC(=O)NCC(N)=O)C(C)C)C(C)C [compound 7] (H-H[Aib]EGS[αMeF]TSEVSS[αMeF]LEGEAA[αMeK]E[αMeF]IA[αMeF]VV[αMeK]GG-NH2) | ≤ 7.00 | ≤ 7.00 | ≤ 7.00 | ≤ 7.00 | 9.46 | 9.37 | 389 | – | – | – | – | –
3 | CCCCCCCCCCCC(=O)N[C@@H](CCC(=O)NCCOCCOCC(=O)NCCOCCOCC(=O)NCCCC[C@H](NC(=O)[C@H](CCC(=O)O)NC(=O)CNC(=O)[C@H](CCC(=O)O)NC(=O)[C@H](CCCCNC(=O)COCCOCCNC(=O)COCCOCCNC(=O)CC[C@H](NC(=O)CCCCCCCCCCC)C(=O)O)NC(=O)[C@H](Cc1ccc(O)cc1)NC(=O)[C@H](CO)NC(=O)[C@](C)(CO)NC(=O)[C@@H](NC(=O)[C@H](CC(=O)O)NC(=O)[C@H](CO)NC(=O)[C@@H](NC(=O)[C@](C)(Cc1ccccc1)NC(=O)[C@H](CO)NC(=O)CNC(=O)[C@H](CCC(=O)O)NC(=O)C(C)(C)NC(=O)[C@@H](N)Cc1c[nH]cn1)[C@@H](C)O)C(C)C)C(=O)N[C@@H](C)C(=O)N[C@@](C)(CCCCN)C(=O)N[C@@H](CCC(=O)O)C(=O)N[C@@H](Cc1ccccc1)C(=O)N[C@H](C(=O)N[C@@H](CCCCNC(=O)COCCOCCNC(=O)COCCOCCNC(=O)CC[C@H](NC(=O)CCCCCCCCCCC)C(=O)O)C(=O)N[C@@H](Cc1ccccc1)C(=O)N[C@H](C(=O)N[C@H](C(=O)N[C@@H](CCC(=O)O)C(=O)NCC(=O)NCC(N)=O)C(C)C)C(C)C)[C@@H](C)CC)C(=O)O [compound 453] (H-H[Aib]EGS[αMeF]TSDV[αMeS]SYK([AEEA-AEEA-γGlu-Lauroyl])EGEK([AEEA-AEEA-γGlu-Lauroyl])A[αMeK]EFIK([AEEA-AEEA-γGlu-Lauroyl])FVVEGG-NH2) | – | – | – | – | – | – | – | 7.71 | 7.71 | 114 | 10.20 | 9.78
4 | CCCCCCCCCCCCCCCC(=O)N[C@@H](CCC(=O)NCCCC[C@H](NC(=O)[C@H](CCC(=O)O)NC(=O)[C@](C)(CCCCN)NC(=O)[C@H](C)NC(=O)[C@H](C)NC(=O)[C@H](CCC(=O)O)NC(=O)CNC(=O)[C@H](CCC(=O)O)NC(=O)[C@H](CC(C)C)NC(=O)[C@](C)(Cc1ccccc1)NC(=O)[C@H](CO)NC(=O)[C@](C)(CO)NC(=O)[C@@H](NC(=O)[C@H](CC(=O)O)NC(=O)[C@H](CO)NC(=O)[C@@H](NC(=O)[C@](C)(Cc1ccccc1)NC(=O)[C@H](CO)NC(=O)CNC(=O)[C@H](CCC(=O)O)NC(=O)C(C)(C)NC(=O)[C@@H](N)Cc1c[nH]cn1)[C@@H](C)O)C(C)C)C(=O)N[C@H](C(=O)N[C@@H](C)C(=O)N[C@@](C)(Cc1ccccc1)C(=O)N[C@H](C(=O)N[C@H](C(=O)N[C@@](C)(CCCCN)C(=O)NCC(=O)NCC(N)=O)C(C)C)C(C)C)[C@@H](C)CC)C(=O)O [compound 78] | ≤ 7.55 | ≤ 7.55 | ≤ 7.55 | ≤ 7.55 | 10.74 | 11.03 | 14 | – | – | – | – | –
5 | CCCCCCCCCCCCCCCCCC(=O)NCCCCCC(=O)NCCCCCC(=O)NCCCC[C@H](NC(=O)[C@H](C)NC(=O)[C@H](C)NC(=O)[C@H](CCC(=O)O)NC(=O)CNC(=O)[C@H](CCC(=O)O)NC(=O)[C@H](CC(C)C)NC(=O)[C@](C)(Cc1ccccc1)NC(=O)[C@H](CO)NC(=O)[C@](C)(CO)NC(=O)[C@@H](NC(=O)[C@H](CC(=O)O)NC(=O)[C@H](CO)NC(=O)[C@@H](NC(=O)[C@](C)(Cc1ccccc1)NC(=O)[C@H](CO)NC(=O)CNC(=O)[C@H](CCC(=O)O)NC(=O)C(C)(C)NC(=O)[C@@H](N)Cc1c[nH]cn1)[C@@H](C)O)C(C)C)C(=O)N[C@@H](CCC(=O)O)C(=O)N[C@@](C)(Cc1ccccc1)C(=O)N[C@H](C(=O)N[C@@H](C)C(=O)N[C@@](C)(Cc1ccccc1)C(=O)N[C@H](C(=O)N[C@H](C(=O)N[C@@](C)(CCCCN)C(=O)NCC(=O)NCC(N)=O)C(C)C)C(C)C)[C@@H](C)CC [compound 150] | ≤ 7.57 | ≤ 7.57 | ≤ 7.57 | ≤ 7.57 | 10.55 | 10.66 | 25.4 | – | – | – | – | –
6 | CC[C@H](C)[C@H](NC(=O)[C@](C)(Cc1ccccc1)NC(=O)[C@H](CCC(=O)O)NC(=O)[C@H](CCCCNC(=O)CCCCCNC(=O)CCCCCNC(=O)CCCCCCCCCCCCCCCCC(=O)O)NC(=O)[C@H](C)NC(=O)[C@H](C)NC(=O)[C@H](CCC(=O)O)NC(=O)CNC(=O)[C@H](CCC(=O)O)NC(=O)[C@H](CC(C)C)NC(=O)[C@](C)(Cc1ccccc1)NC(=O)[C@H](CO)NC(=O)[C@](C)(CO)NC(=O)[C@@H](NC(=O)[C@H](CC(=O)O)NC(=O)[C@H](CO)NC(=O)[C@@H](NC(=O)[C@](C)(Cc1ccccc1)NC(=O)[C@H](CO)NC(=O)CNC(=O)[C@H](CCC(=O)O)NC(=O)C(C)(C)NC(=O)[C@@H](N)Cc1c[nH]cn1)[C@@H](C)O)C(C)C)C(=O)N[C@@H](C)C(=O)N[C@@](C)(Cc1ccccc1)C(=O)N[C@H](C(=O)N[C@H](C(=O)N[C@@](C)(CCCCN)C(=O)NCC(=O)NCC(N)=O)C(C)C)C(C)C [compound 159] | ≤ 7.57 | ≤ 7.57 | ≤ 7.57 | ≤ 7.57 | 9.55 | 9.64 | 254 | – | – | – | – | –
7 | CC[C@H](C)[C@H](NC(=O)[C@](C)(Cc1ccccc1)NC(=O)[C@H](CCC(=O)O)NC(=O)[C@](C)(CCCCN)NC(=O)[C@H](C)NC(=O)[C@H](C)NC(=O)[C@H](CCC(=O)O)NC(=O)CNC(=O)[C@H](CCC(=O)O)NC(=O)[C@H](CC(C)C)NC(=O)[C@](C)(Cc1ccccc1)NC(=O)[C@H](CO)NC(=O)[C@](C)(CO)NC(=O)[C@@H](NC(=O)[C@H](CC(=O)O)NC(=O)[C@](C)(CO)NC(=O)[C@@H](NC(=O)[C@](C)(Cc1ccccc1)NC(=O)[C@H](CO)NC(=O)CNC(=O)[C@H](CCC(=O)O)NC(=O)C(C)(C)NC(=O)[C@@H](N)Cc1c[nH]cn1)[C@@H](C)O)C(C)C)C(=O)N[C@@H](C)C(=O)N[C@@](C)(Cc1ccccc1)C(=O)N[C@H](C(=O)N[C@H](C(=O)N[C@@](C)(CCCCN)C(=O)NCC(=O)NCC(N)=O)C(C)C)C(C)C [compound 18] | ≤ 7.00 | ≤ 7.00 | ≤ 7.00 | ≤ 7.00 | 8.39 | 8.24 | 4940 | – | – | – | – | –
